Changes are numbered by the printed parent chain.
Key:
[1] = molecular target: T1, NrdEF (holo-NrdE + Mn-reconstituted NrdF) (Bacillus subtilis, UniProt P50620); experiment: cryo-EM structure ([…] Å); format: binding; details: allosteric; S-site and I-site of NrdE in NrdEF filament; 100 µM dATP, 1 mM CDP, 15 mM MgCl2, pH 7.6
T1 construct: tagless NrdE (SUMO tag cleaved) plus His6-tagged NrdF, E. coli host; alpha2beta2 asymmetric unit of filament; both nucleotide sites lie on NrdE; NrdF modelled only as C-terminal polyalanine peptide; with Ribonucleoside-diphosphate reductase subunit beta NrdF

[2] = molecular target: T2, NrdE (holo-NrdE; class Ib RNR alpha subunit) (Bacillus subtilis, UniProt P50620); experiment: cryo-EM structure ([…] Å) and SAXS titration; format: binding; details: allosteric; S-site and I-site; 100 µM dATP, 1 mM CDP, 15 mM MgCl2, pH 7.6; dATP displaces co-purified dAMP at I-site
T2 construct: tagless full-length (C-terminal residue V700), His6-SUMO tag cleaved, E. coli BL21(DE3); holo form co-purifies with dAMP; monomer, I-dimer, S-dimer or filament depending on nucleotides

[3] = molecular target: T2, NrdE (holo-NrdE; class Ib RNR alpha subunit); experiment: crystal structure ([…] Å) and SAXS titration; format: binding; details: allosteric; M-site; 5 mM Mg-ATP with TTP and GDP; may have displaced GDP
[4] = molecular target: T2, NrdE (holo-NrdE; class Ib RNR alpha subunit); experiment: crystal structure ([…] Å); format: binding; details: allosteric; I-site, displacing dAMP; presumed hydrolysis product of added ATP; with TTP and GDP or CDP
[5] = molecular target: T3, Bacillus subtilis NrdE C382S, tagless (Bacillus subtilis, UniProt P50620 1-700, C382S); experiment: SAXS titration; 0-20 µM Fe-NrdF titrated to 4 µM C382S holo-NrdE, 50 µM dATP, 1 mM CDP, assay buffer with 5% glycerol, 4 °C; singular value decomposition; details: both partners purified
T3 construct: NrdE, α subunit of the class Ib ribonucleotide reductase of Bacillus subtilis, with the catalytic cysteine C382 changed to serine; Used in all SAXS experiments where NrdF was added, to prevent changes in nucleotide concentrations (D1:p2); also called C382S holo-NrdE; C382S NrdE
T3 sequence: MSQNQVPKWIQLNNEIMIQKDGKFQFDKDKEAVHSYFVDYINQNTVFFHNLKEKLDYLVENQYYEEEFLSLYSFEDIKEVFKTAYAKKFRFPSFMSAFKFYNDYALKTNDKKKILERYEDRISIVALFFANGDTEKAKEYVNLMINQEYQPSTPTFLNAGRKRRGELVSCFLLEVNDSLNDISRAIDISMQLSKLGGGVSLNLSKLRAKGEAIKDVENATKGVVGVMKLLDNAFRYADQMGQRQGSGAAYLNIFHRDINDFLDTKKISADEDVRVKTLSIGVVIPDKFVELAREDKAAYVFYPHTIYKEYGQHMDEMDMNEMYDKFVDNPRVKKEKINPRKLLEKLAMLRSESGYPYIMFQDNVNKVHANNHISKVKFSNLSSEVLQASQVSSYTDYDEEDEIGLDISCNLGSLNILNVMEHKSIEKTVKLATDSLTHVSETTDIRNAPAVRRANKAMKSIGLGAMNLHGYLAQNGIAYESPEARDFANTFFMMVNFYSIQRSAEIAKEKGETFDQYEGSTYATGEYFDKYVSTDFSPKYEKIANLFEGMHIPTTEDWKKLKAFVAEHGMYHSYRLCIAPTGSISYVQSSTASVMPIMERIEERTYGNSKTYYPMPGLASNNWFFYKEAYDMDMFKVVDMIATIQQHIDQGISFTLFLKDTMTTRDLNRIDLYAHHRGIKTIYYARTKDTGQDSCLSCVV

[6] = molecular target: the molecule itself; experiment: SEC-SAXS; stoichiometric mixture of C382S holo-NrdE and NrdF with 1 mM ATP and 250 µM TTP, 4 °C
[7] = molecular target: T4, Bacillus subtilis class Ib ribonucleotide reductase alpha subunit NrdE, wild type, tagless (Bacillus subtilis, UniProt P50620 1-700); experiment: cryo-EM structure; 20 µM holo-NrdE with 20 or 40 µM Mn-reconstituted NrdF, 100 µM dATP, 1 mM CDP, diluted four-fold; NrdEF filament, 4.7 Å map; details: both partners purified
T4 construct: NrdE, alpha subunit of the class Ib ribonucleotide reductase of Bacillus subtilis; tagless after SUMO protease; also called apo-NrdE (dAMP-free)
T4 sequence: T3 sequence with S382C

[8] = molecular target: the molecule itself; experiment: SEC-SAXS; 80 µM wt holo-NrdE loaded, 250 µM TTP, 1 mM ATP, assay buffer with 1% glycerol, 4 °C; fit of the dataset to I-dimer, S-dimer and monomer in OLIGOMER

T2 sequence (P50620 whole entry): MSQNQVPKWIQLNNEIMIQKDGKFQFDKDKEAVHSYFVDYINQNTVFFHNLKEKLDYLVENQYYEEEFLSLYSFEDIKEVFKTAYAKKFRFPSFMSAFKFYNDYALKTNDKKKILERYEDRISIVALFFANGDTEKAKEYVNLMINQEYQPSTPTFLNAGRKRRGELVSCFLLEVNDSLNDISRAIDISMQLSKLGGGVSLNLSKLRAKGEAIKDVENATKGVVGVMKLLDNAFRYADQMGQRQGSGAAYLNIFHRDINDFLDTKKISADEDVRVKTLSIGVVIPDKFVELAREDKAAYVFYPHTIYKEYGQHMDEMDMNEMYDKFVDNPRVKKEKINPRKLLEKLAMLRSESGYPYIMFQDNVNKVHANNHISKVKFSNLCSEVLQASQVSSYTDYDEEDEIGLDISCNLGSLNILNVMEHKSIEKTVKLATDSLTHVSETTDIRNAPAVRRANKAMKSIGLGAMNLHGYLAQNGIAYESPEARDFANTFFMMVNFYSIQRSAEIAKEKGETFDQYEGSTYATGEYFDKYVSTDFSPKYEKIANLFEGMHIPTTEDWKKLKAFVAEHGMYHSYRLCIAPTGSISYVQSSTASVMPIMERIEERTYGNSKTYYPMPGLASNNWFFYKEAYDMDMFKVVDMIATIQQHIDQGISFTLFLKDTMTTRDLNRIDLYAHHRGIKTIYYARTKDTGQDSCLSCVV
T1 sequence (P50620 whole entry, one chain of several): as the sequence (P50620 whole entry) above

## Nc1ncnc2c1ncn2[C@H]1C[C@H](O)[C@@H](COP(=O)(O)OP(=O)(O)OP(=O)(O)O)O1 [dATP]
[1]
  cryo-EM structure (4.7 Å): a dATP molecule at each S- and I-site
[2]
  cryo-EM structure (6 Å) and SAXS titration: For both filaments, excess density at the S-site was modeled as dATP

## Nc1ncnc2c1ncn2[C@@H]1O[C@H](COP(=O)(O)OP(=O)(O)OP(=O)(O)O)[C@@H](O)[C@H]1O [ATP]
[3]
  crystal structure (2.50, 2.55 Å) and SAXS titration: we also observed nearby electron density for an ATP ligand with the adenine ring positioned

## Nc1ncnc2c1ncn2[C@@H]1O[C@H](COP(=O)(O)OP(=O)(O)O)[C@@H](O)[C@H]1O [ADP]
[4]
  crystal structure (2.50, 2.55, 2.95 Å): Electron density at the I-site showed strong evidence for an ADP ligand displacing dAMP

B1: Bacillus subtilis class Ib ribonucleotide reductase NrdF (β subunit), His6-tagged, metal-reconstituted (enzyme)
chain: MTKIYDAANWSKHEDDFTQMFYNQNVKQFWLPEEIALNGDLLTWKYLGKNEQDTYMKVLAGLTLLDTEQGNTGMPIVAEHVDGHQRKAVLNFMAMMENAVHAKSYSNIFMTLAPTETINEVFEWVKQNKYLQKKAQMIVGLYKAIQKDDEISLFKAMVASVYLESFLFYSGFYYPLYFYGQGKLMQSGEIINLILRDEAIHGVYVGLLAQEIYNKQTEEKKAELREFAIDLLNQLYENELEYTEDLYDQVGLSHDVKKFIRYNANKALMNLGFDPYFEEEDINPIVLNGLNTKTKSHDFFSMKGNGYKKATVEPLKDDDFYFEDEKEQI
notes: NrdF, β subunit of the class Ib ribonucleotide reductase of Bacillus subtilis; Fe-NrdF was used in the subunit titration, Mn-NrdF in SEC-SAXS and cryo-EM; also called Fe-NrdF; Mn-NrdF; source: produced in a similar manner as NrdE but without the tag cleavage steps, purified; reconstituted with Fe(III)2-Y• or Mn(III)2-Y•, MonoQ
[5]
  stoichiometry N: ~1 NrdF per NrdE (subunits)

B2: Bacillus subtilis class Ib ribonucleotide reductase beta subunit NrdF, His6-tagged, metal-reconstituted (enzyme)
chain: B1 chain
notes: NrdF, beta subunit of the class Ib ribonucleotide reductase of Bacillus subtilis; Fe-NrdF in the SAXS subunit titration, Mn-reconstituted NrdF in cryo-EM; also called Fe-NrdF
[6]
  binding result: binds
[7]
  binding result: binds

B3: Bacillus subtilis class Ib ribonucleotide reductase NrdE (α subunit), wild type, tagless (enzyme)
chain: T3 sequence with S382C
notes: NrdE, α subunit of the class Ib ribonucleotide reductase of Bacillus subtilis; holo-NrdE carries the co-purified dAMP ligand, apo-NrdE is nucleotide-free; same polypeptide; also called wt apo-NrdE (dAMP-free)
[8]
  stoichiometry N: 2
